Test results as given in paper PMC8775252, “Characterization of Alternaria porri causing onion purple blotch and its antifungal compound magnolol identified from Caryodaphnopsis baviensis” (PLoS ONE, 2022).
Values after ≈ are worked out from the molar mass of the structure shown. Read-outs that look alike come from different tables or passages of the source.

Legend:
Alternaria porri [1] = experiment: microbe, parasite or virus in culture; assay type: cell-based; conditions: 72 h, 3 days, 25°C
Alternaria brassicicola = experiment: microbe, parasite or virus in culture; assay type: cell-based; conditions: 72 h, 3 days, 25°C
Botrytis cinerea = experiment: microbe, parasite or virus in culture; assay type: cell-based; conditions: 72 h, 3 days, 25°C
Colletotrichum cocodes = experiment: microbe, parasite or virus in culture; assay type: cell-based; conditions: 72 h, 3 days, 25°C
Fusarium oxysporum = experiment: microbe, parasite or virus in culture; assay type: cell-based, Fusarium oxysporum f. sp. lycopersici; conditions: 72 h, 3 days, 25°C
Magnaporthe oryzae = experiment: microbe, parasite or virus in culture; assay type: cell-based; conditions: Pyricularia oryzae, 72 h; 3 days, 25°C
Phytophthora infestans = experiment: microbe, parasite or virus in culture; assay type: cell-based; conditions: 72 h, 3 days, 25°C
OXPHOS complex II = OXPHOS complex II (Bos taurus, UniProt P31039+P35720+Q3T189+Q95123); experiment: biochemical
OXPHOS complex II, sequence (Q95123 56-158): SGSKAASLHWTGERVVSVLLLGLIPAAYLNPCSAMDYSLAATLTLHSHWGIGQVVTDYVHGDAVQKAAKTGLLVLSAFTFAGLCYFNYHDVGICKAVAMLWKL
OXPHOS complex II, sequence (P31039 44-665): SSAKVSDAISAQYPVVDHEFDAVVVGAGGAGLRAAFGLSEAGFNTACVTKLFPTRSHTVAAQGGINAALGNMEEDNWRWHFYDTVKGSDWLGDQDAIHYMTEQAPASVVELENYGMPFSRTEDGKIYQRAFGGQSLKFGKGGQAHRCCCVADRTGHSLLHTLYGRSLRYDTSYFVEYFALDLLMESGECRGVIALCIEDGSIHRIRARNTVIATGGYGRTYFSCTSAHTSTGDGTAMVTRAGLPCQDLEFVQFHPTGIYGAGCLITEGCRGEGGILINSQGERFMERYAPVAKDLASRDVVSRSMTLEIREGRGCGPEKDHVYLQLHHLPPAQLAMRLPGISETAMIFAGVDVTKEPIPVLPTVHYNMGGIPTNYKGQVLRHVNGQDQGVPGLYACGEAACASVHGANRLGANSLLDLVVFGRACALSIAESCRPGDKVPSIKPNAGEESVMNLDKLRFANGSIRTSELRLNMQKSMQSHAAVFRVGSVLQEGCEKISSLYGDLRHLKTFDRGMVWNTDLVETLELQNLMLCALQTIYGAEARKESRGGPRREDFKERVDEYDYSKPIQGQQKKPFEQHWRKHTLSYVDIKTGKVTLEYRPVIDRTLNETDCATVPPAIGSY
OXPHOS complex II, sequence (P35720 30-169): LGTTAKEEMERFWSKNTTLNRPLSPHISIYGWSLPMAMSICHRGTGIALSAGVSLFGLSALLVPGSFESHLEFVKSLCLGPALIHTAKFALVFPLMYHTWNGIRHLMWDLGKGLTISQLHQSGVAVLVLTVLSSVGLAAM
OXPHOS complex II, sequence (Q3T189 29-280): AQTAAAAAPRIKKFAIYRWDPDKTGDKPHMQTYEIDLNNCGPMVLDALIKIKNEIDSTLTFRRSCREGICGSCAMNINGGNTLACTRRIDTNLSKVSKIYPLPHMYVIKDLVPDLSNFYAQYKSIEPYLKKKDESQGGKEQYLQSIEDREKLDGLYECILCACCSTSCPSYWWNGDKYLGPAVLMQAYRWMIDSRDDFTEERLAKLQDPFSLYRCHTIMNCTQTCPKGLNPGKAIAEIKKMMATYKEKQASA

OXPHOS complex III = OXPHOS complex III (Bos taurus, UniProt P00125+P00157+P13272); assay type: biochemical
Alternaria porri [2] = experiment: microbe, parasite or virus in culture; assay type: cell-based
Alternaria porri [3] = experiment: microbe, parasite or virus in culture; assay type: cell-based; remark: listed apart in the source
OXPHOS complex I = assay type: biochemical
OXPHOS complex IV = OXPHOS complex IV (Bos taurus, UniProt P00396+P68530); experiment: biochemical
OXPHOS complex V = OXPHOS complex V (Bos taurus, UniProt P00829+P19483); experiment: MitoTox Complete OXPHOS Activity Assay; assay type: biochemical
onion plants = conditions: in vivo
[4] = in vivo, cited from earlier work
[5] = test system: onion purple blotch (Alternaria porri); assay type: in vivo, Allium cepa L.; conditions: sprayed at 100 μg/ml, 5 dpi

C[C@@H]1C[C@@H]([C@H](O)CC2CC(=O)NC(=O)C2)C(=O)[C@@H](C)C1 [Cycloheximide, cycloheximide, reference compound]
MIC (Alternaria porri [1]): 6.3 mg/L (≈ 22.4 µM) | MIC (Alternaria brassicicola): 6.3 mg/L (≈ 22.4 µM) | MIC (Botrytis cinerea): 50 mg/L (≈ 178 µM) | MIC (Colletotrichum cocodes): 1.6 mg/L (≈ 5.69 µM) | MIC (Fusarium oxysporum): 200 mg/L (≈ 711 µM) | MIC (Magnaporthe oryzae): 6.3 mg/L (≈ 22.4 µM) | MIC (Phytophthora infestans): 1.6 mg/L (≈ 5.69 µM)

O=C(CC(=O)C(F)(F)F)c1cccs1 [TTFA, thenoyltrifluoroacetone, reference compound]
effect on complex II activity (OXPHOS complex II): suppressed each complex activity in a concentration-dependent manner

CCCCCC[C@H]1C(=O)O[C@H](C)[C@H](NC(=O)c2cccc(NC=O)c2O)C(=O)O[C@@H](C)[C@@H]1OC(=O)CC(C)C [antimycin A, reference compound]
effect on complex III activity (OXPHOS complex III): suppressed each complex activity in a concentration-dependent manner

C=CCc1ccc(O)c(-c2cc(CC=C)ccc2O)c1 [magnolol, 5,5’-di-2-propenyl-1,1’-biphenyl-2,2’-diol]
inhibitory activity on mycelial growth compared with mancozeb (Alternaria porri [2]): more potent than that of the broad-spectrum fungicide mancozeb | IC50 (Alternaria porri [2]; Alternaria porri, 168 h, read-out: IC50, mycelial growth): 5.4 mg/L (≈ 20.3 µM) | MIC (Alternaria porri [2]; Alternaria porri, read-out: MIC, mycelial growth completely inhibited): 100 mg/L (≈ 375 µM) | IC50 (Alternaria porri [3]; 10 h, read-out: IC50, spore germination): 4.5 mg/L (≈ 16.9 µM) | MIC (Alternaria porri [3]; read-out: MIC, spore germination completely inhibited): 11 mg/L (≈ 41.3 µM) | MIC (Alternaria porri [1]): 6.3 mg/L (≈ 23.7 µM) | MIC (Alternaria brassicicola): 6.3 mg/L (≈ 23.7 µM) | MIC (Botrytis cinerea): 25 mg/L (≈ 93.9 µM) | MIC (Colletotrichum cocodes): 6.3 mg/L (≈ 23.7 µM) | MIC (Fusarium oxysporum): 25 mg/L (≈ 93.9 µM) | MIC (Magnaporthe oryzae): 3.1 mg/L (≈ 11.6 µM) | MIC (Phytophthora infestans): > 100 mg/L | activity of complex I (OXPHOS complex I): 78% | effect on complex I activity (OXPHOS complex I): decreased by the magnolol treatment in a concentration-dependent manner | IC50 (OXPHOS complex II): 8.3 µM | IC50 (OXPHOS complex III; read-out: IC50, complex III activity): 19.4 µM | IC50 (OXPHOS complex IV): 10.9 µM | IC50 (OXPHOS complex V; read-out: IC50, complex V activity): 4.7 µM | phytotoxic symptoms (onion plants): no phytotoxic symptoms | excreted in the feces and urine ([4]; po): > 90% | oral dose remaining circulating in the free form [4]: 1%

CC[C@H]1/C=C/C=C/C[C@@H](C)[C@H](O)[C@@](C)(O)C(=O)[C@@H](C)[C@H](O)[C@@H](C)C(=O)[C@@H](C)[C@H](O)[C@@H](C)/C=C/C(=O)O[C@@H]2[C@H](C)[C@H](CC1)O[C@]1(CC[C@H](C)[C@H](C[C@@H](C)O)O1)[C@H]2C [oligomycin, reference compound]
effect on complex V activity (OXPHOS complex V; result in words, S6 Fig): suppressed each complex activity in a concentration-dependent manner

C=C(C)[C@H]1Cc2c(ccc3c2O[C@@H]2COc4cc(OC)c(OC)cc4[C@@H]2C3=O)O1 [rotenone, reference compound]
effect on complex I activity (OXPHOS complex I): suppressed each complex activity in a concentration-dependent manner

mancozeb
disease control value [5]: 95%
